The values below come from patent US20080188481A1 (priority 2002, published 2008).

pEC50: −log10 of the molar value.

The assay relates to HIV-1 single-round infectious reporter virus. As to the kind of experiment: Single-round infectious HIV-1 luciferase reporter virus infection of HeLa CD4 cells (antiviral EC50). The format is cell-based. Particulars: Human immunodeficiency virus 1, HeLa, 72 h, read-out: EC50 Group from Table 1. Here is the method:
• Virus production—Human embryonic Kidney cell line, 293T, was propagated in Dulbecco's Modified Eagle Medium (Invitrogen, Carlsbad, Calif.) containing 10% fetal Bovine serum (FBS, Sigma, St. Louis, Mo.). • Virus infection—Human epithelial cell line, HeLa, expressing the HIV-1 receptor CD4 was propagated in Dulbecco's Modified Eagle Medium (Invitrogen, Carlsbad, Calif.) containing 10% fetal Bovine serum (FBS, Sigma, St. Louis, Mo.) and supplemented with 0.2 mg/mL Geneticin (Invitrogen, Carlsbad, Calif.). Virus-Single-round infectious reporter virus was produced by co-transfecting human embryonic Kidney 293 cells with an HIV-1 envelope DNA expression vector and a proviral cDNA containing an envelope deletion mutation and the luciferase reporter gene inserted in place of HIV-1 nef sequences (Chen et al, Ref. 41). Transfections were performed using lipofectAMINE PLUS reagent as described by the manufacturer (Invitrogen, Carlsbad, Calif.).
• 1. HeLa CD4 cells were plated in 96 well plates at a cell density of 1×10^4 cells per well in 100 μl Dulbecco's Modified Eagle Medium containing 10% fetal Bovine serum and incubated overnight. • 2. Compound was added in a 2 μl dimethylsulfoxide solution, so that the final assay concentration would be ≦10 μM. • 3. 100 μl of single-round infectious reporter virus in Dulbecco's Modified Eagle Medium was then added to the plated cells and compound at an approximate multiplicity of infection (MOI) of 0.01, resulting in a final volume of 200 μl per well. • 4. Virally-infected cells were incubated at 37 degrees Celsius, in a CO2 incubator, and harvested 72 h after infection. • 5. Viral infection was monitored by measuring luciferase expression from viral DNA in the infected cells using a luciferase reporter gene assay kit, as described by the manufacturer (Roche Molecular Biochemicals, Indianapolis, Ind.). Infected cell supernatants were removed and 50 μl of lysis buffer was added per well. After 15 minutes, 50 μl of freshly-reconstituted luciferase assay reagent was added per well. Luciferase activity was then quantified by measuring luminescence using a Wallac microbeta scintillation counter. • 6. The percent inhibition for each compound was calculated by quantifying the level of luciferase expression in cells infected in the presence of each compound as a percentage of that observed for cells infected in the absence of compound and subtracting such a determined value from 100. • 7. An EC50 provides a method for comparing the antiviral potency of the compounds of this invention. The effective concentration for fifty percent inhibition (EC50) was calculated with the Microsoft Excel Xlfit curve fitting software. For each compound, curves were generated from percent inhibition calculated at 10 different concentrations by using a four paramenter logistic model (model 205). Table 1 is the key for the data in Table 2.
A general note: Reporter assays use an easily measured gene product as a stand-in for the process of interest.
As a reminder, the pEC50 is the negative decadic logarithm of the EC50, by convention in mol/L. Regarding `COc1ccnc2[nH]cc(C(=O)C(=O)N3CCC(=C(F)c4ccccc4)CC3)c12` [Example 10], the pEC50 was over 6.00.
The value for `COc1cnc(-n2cnc(C)n2)c2[nH]cc(C(=O)C(=O)N3CCC(=C(c4ccccc4)c4nnc(-c5ccccc5)o4)CC3)c12` [Example 135, 1-[4-(1-Phenyl-1-(5-phenyl-1,3,4-oxadiazol-2-yl)-methylene)-piperidin-1-yl]-2-[4-methoxy-7-(3-methyl-1,2,4-triazol-1-yl)-6-azaindol-3-yl]-ethane-1,2-dione] was under 6.30; that for `COc1ncc(OC)c2c(C(=O)C(=O)N3CCC(=C(c4ccccc4)c4c(C)noc4C)CC3)c[nH]c12` [Example 60] was over 6.00.
The value for `COc1ncc(OC)c2c(C(=O)C(=O)N3CCC(=C(c4ccccc4)c4ccc(F)cc4)CC3)c[nH]c12` [Example 64] was over 6.00; that for `COc1cnc(-c2cnccn2)c2[nH]cc(C(=O)C(=O)N3CCC(=C(C(N)=O)c4ccccc4)CC3)c12` [Example 49] was over 6.00.
Under `COc1cnc(-n2cnc(C)n2)c2[nH]cc(C(=O)C(=O)N3CCC(=C(c4ccccc4)c4nnc(C(C)(C)C)o4)CC3)c12` [Example 134, 1-[4-(1-Phenyl-1-(5-tert-butyl-1,3,4-oxadiazol-2-yl)-methylene)-piperidin-1-yl]-2-[4-methoxy-7-(3-methyl-1,2,4-triazol-1-yl)-6-azaindol-3-yl]-ethane-1,2-dione] stands over 6.00.
Turning to `Cc1nnc(C(=C2CCN(C(=O)C(=O)c3c[nH]c4c(Cl)ccnc34)CC2)c2ccccc2)o1` [Example 108, 1-(7-Chloro-1H-pyrrolo[3,2-b]pyridin-3-yl)-2-{4-[(5-methyl-[1,3,4]oxadiazol-2-yl)-phenyl-methylene]-piperidin-1-yl}-ethane-1,2-dione], the pEC50 is over 6.00.
Under `COc1ncc(OC)c2c(C(=O)C(=O)N3CCC(=C(c4ccccc4)c4cc(C)cs4)CC3)c[nH]c12` [Example 55] stands over 6.00.
Under `COc1cnc(-n2ccc(C)n2)c2[nH]cc(C(=O)C(=O)N3CCC(=C(c4ccccc4)c4cnccn4)CC3)c12` [Example 96] stands over 6.00; under `COc1cnc(-c2cnccn2)c2[nH]cc(C(=O)C(=O)N3CCC(=C(c4ccccc4)c4cnco4)CC3)c12` [Example 92], over 6.00; under `N#CC(=C1CCN(C(=O)C(=O)c2c[nH]c3c(-n4ccnn4)ncc(F)c23)CC1)c1ccccc1` [Example 129a, {1-[2-(4-Fluoro-7-[1,2,3]triazol-1-yl-1H-pyrrolo[2,3-c]pyridin-3-yl)-2-oxo-acetyl]-piperidin-4-ylidene}-phenyl-acetonitrile], over 6.00.
Under `COc1ncc(OC)c2c(C(=O)C(=O)N3CCC(=C(Br)c4ccccc4)CC3)c[nH]c12` [Example 48a, 1-[4-(1-Bromo-1-phenyl-methylene)-piperidin-1-yl]-2-(4,7-dimethoxy-6-azaindol-3-yl)-ethane-1,2-dione] stands over 6.00; under `N#CC(=C1CCN(C(=O)C(=O)c2c[nH]c3c(-c4ncco4)ccnc23)CC1)c1ccccc1` [Example 103, {1-[2-(7-Oxazol-2-yl-1H-pyrrolo[3,2-b]pyridin-3-yl)-2-oxo-acetyl]-piperidin-4-ylidene}-phenyl-acetonitrile], over 6.00.
As to `COc1cnc(-n2ccnn2)c2[nH]cc(C(=O)C(=O)N3CCC(=C(c4ccccc4)c4cccc(CO)c4)CC3)c12` [Example 78, 1-[4-(1-Phenyl-1-(3-hydroxymethylphenyl)-methylene)-piperidin-1-yl]-2-[4-methoxy-7-(1,2,3-triazol-1-yl)-6-azaindol-3-yl]-ethane-1,2-dione], the pEC50 is over 6.00.
As to `CCOC(=O)c1cncc(C(=C2CCN(C(=O)C(=O)c3c[nH]c4c(-n5cnc(C)n5)ncc(OC)c34)CC2)c2ccccc2)c1` [Example 121], the pEC50 is over 6.00.
Under `COc1cnc(Cl)c2[nH]cc(C(=O)C(=O)N3CCC(=C(F)c4ccccc4)CC3)c12` [Example 21] stands over 6.00; under `COc1ncc(OC)c2c(C(=O)C(=O)N3CCC(=C(C#N)c4ccsc4)CC3)c[nH]c12` [Example 126, 1-[4-(1-Cyano-1-thien-3-yl-methylene)-piperidin-1-yl]-2-(4,7-dimethoxy-6-azaindol-3-yl)-ethane-1,2-dione], over 6.00; under `COc1cnc(-n2ccc(C)n2)c2[nH]cc(C(=O)C(=O)N3CCC(=C(c4ccccc4)c4nccs4)CC3)c12` [Example 95], over 6.00.
The value for `COc1ncc(OC)c2c(C(=O)C(=O)N3CCC(=C(C#C[Si](C)(C)C)c4ccccc4)CC3)c[nH]c12` [Example 112, 1-[4-(1-Phenyl-1-(2-trimethylsilylethyn-1-yl)-methylene)-piperidin-1-yl]-2-(4,7-dimethoxy-6-azaindol-3-yl)-ethane-1,2-dione] was over 6.00; that for `COc1ncc(OC)c2c(C(=O)C(=O)N3CCC(=C(C#Cc4ccccc4)c4ccccc4)CC3)c[nH]c12` [Example 118, 1-[4-(1-Phenyl-1-(2-phenylethyn-1-yl)-methylene)-piperidin-1-yl]-2-(4,7-dimethoxy-6-azaindol-3-yl)-ethane-1,2-dione] was over 6.00; that for `COc1ncc(OC)c2c(C(=O)C(=O)N3CCC(=C(C#N)c4nc5ccccc5s4)CC3)c[nH]c12` [Example 123, 1-[4-(1-Cyano-1-benzothiazol-2-yl-methylene)-piperidin-1-yl]-2-(4,7-dimethoxy-6-azaindol-3-yl)-ethane-1,2-dione] was under 5.30.
Under `COc1ncc(OC)c2c(C(=O)C(=O)N3CCC(=C(c4ccccc4)c4ccc(SC)cc4)CC3)c[nH]c12` [Example 63] stands over 6.00; under `COc1cnc(-c2nnc(C)[nH]2)c2[nH]cc(C(=O)C(=O)N3CCC(=C(c4ccccc4)c4nnc(C)o4)CC3)c12` [Example 139, 1-[4-(1-Phenyl-1-(5-methyl-1,3,4-oxadiazol-2-yl)-methylene)-piperidin-1-yl]-2-(4-methoxy-7-(5-methyl-1,3,4-triazol-2-yl)-6-azaindol-3-yl)-ethane-1,2-dione], over 6.00.
For `COc1cnc(-n2cncn2)c2[nH]cc(C(=O)C(=O)N3CCC(=C(Br)c4ccccc4)CC3)c12` [Example 88], the pEC50 was over 6.00.
The value for `N#CC(=C1CCN(C(=O)C(=O)c2c[nH]c3c(Cl)ccnc23)CC1)c1ccccc1` [Example 101, {1-[2-(7-Chloro-1H-pyrrolo[3,2-b]pyridin-3-yl)-2-oxo-acetyl]-piperidin-4-ylidene}-phenyl-acetonitrile] was over 6.00; that for `COc1cnc(-n2cnc(C)n2)c2[nH]cc(C(=O)C(=O)N3CCC(=C(c4ccccc4)c4cc(F)cc(F)c4)CC3)c12` [Example 85, 1-[4-(1-Phenyl-1-(3,5-difluorophenyl)-methylene)-piperidin-1-yl]-2-[4-methoxy-7-(3-methyl-1,2,4-triazol-1-yl)-6-azaindol-3-yl]-ethane-1,2-dione] was over 6.00; that for `COc1cnc(-c2cnccn2)c2[nH]cc(C(=O)C(=O)N3CCC(=C(c4ccccc4)c4cnccn4)CC3)c12` [Example 70, 1-[4-(1-Phenyl-1-(pyrazinyl)-methylene)-piperidin-1-yl]-2-(4-methoxy-7-pyrazinyl-6-azaindol-3-yl)-ethane-1,2-dione] was over 6.00.
